Experimental data from article PMC11520554, “The endocannabinoid ARA-S facilitates the activation of cardiac Kv7.1/KCNE1 channels from different species” (Channels, 2024).
Where two headings read alike, the source gives them in different places.

Assays:
[1] = test system: human Kv7.1/KCNE1 channels; parameters: method as in PMID 34601592; details: compared between human and rabbit channels; cited from earlier work
[2] = test system: rabbit Kv7.1/KCNE1 channels; parameters: method as in PMID 34601592; details: compared between human and rabbit channels; cited from earlier work
[3] = test system: guinea pig-like Kv7.1/KCNE1 channel; parameters: method as in PMID 32223014; details: cited from earlier work
[4] = target: guinea pig Kv7.1/KCNE1 channel (Cavia porcellus, UniProt A6Y9U2); experiment: Two-electrode voltage clamp of Kv7.1/KCNE1 expressed in Xenopus laevis oocytes; assay type: cell-based
Excerpt: (§1) Isolation of Xenopus laevis oocytes was approved by the Linköping Animal Care and Use Committee (Permits #1941 and #14515) and conforms to national and international guidelines. All procedures conform to the guidelines from Directive 2010/63/EU of the European Parliament on the protection of animals used for scientific purposes. A total of 30 female adult (minimum 1 year of age) Xenopus laevis animals (from Nasco, WI, USA) underwent surgery to isolate oocytes. The frogs were anaesthetized for 15 minutes in a bath of 1.4 g/L MS-222 Sandoz (Ethyl 3-aminobenzoate methanesulfonate, Sigma Aldrich, Stockholm). The depth of anesthesia was monitored by checking for reflexes when the paws were pinched. A small incision was made on the abdomen to expose lobes of oocytes, which were collected using a surgical scissor. The small incision was closed with suture and local anesthesia (Marcain 5 mg/ml and Xylocain 2%, Distansapoteket, Stockholm) topically applied to relieve pain subsequent to surgery. At the experimental endpoint (in association with the 6th surgery), animals were sacrificed by decapitation under deep anesthesia (which was induced by the bath of 1.4 g/L MS-222 Sandoz). ARRIVE guidelines were followed. Note that experiments were performed on isolated oocytes only (no in vivo experiments were performed). Oocytes were isolated and maintained as previously described. The constructs used had the following accession numbers: human Kv7.1: NM_000218; human KCNE1: NM_000219; guinea pig Kv7.1: NM_001172821.1; guinea pig KCNE1: NM_001172972.1; rabbit Kv7.1: XM_008252197.2; rabbit KCNE1: NM_001109822. Oocytes were injected with RNA for human, guinea pig or rabbit Kv7.1 and KCNE1. The amounts injected were 12.5 ng of human Kv7.1 and 7.5 ng of human KCNE1, 1.25 ng of guinea pig Kv7.1 and 1.25 ng of guinea pig KCNE1, and 0.9 ng of rabbit Kv7.1 and 0.55 ng of rabbit KCNE1. Following injection, the oocytes were generally incubated at 16°C for 1 to 2 days.
(§2) Two-electrode voltage clamp recordings were performed at room temperature using a Dagan CA-1B amplifier (Dagan, MN, USA) or an AxoClamp 900A amplifier (Molecular Devices, CA, USA). All chemicals are from Sigma-Aldrich (Stockholm, Sweden), unless stated otherwise. N-arachidonoyl-L-serine (ARA-S) was bought from Cayman Chemicals (MI, USA) and delivered as a stock solution of 26 mM in EtOH from the supplier. The stock solution was stored at −20°C according to supplier instructions. The control solution contained (in mM): 88 NaCl, 1 KCl, 0.4 CaCl2, 0.8 MgCl2, and 15 HEPES (with pH set to 7.4 using NaOH). For ARA-S experiments, the control solution was supplemented with indicated concentrations of ARA-S. The holding voltage was set to −80 mV. Activation curves were generally generated in steps between −80 and + 60 or +80 mV in increments of 10 mV (5-s duration). The tail voltage was set to −20 or −30 mV. Control solution or ARA-S supplemented solution was continuously perfused into the oocyte chamber at a speed of 1 mL/min using a Minipuls 3 peristaltic pump (Gilson, WI, USA). ARA-S was applied until a stable effect on current amplitude was observed, achieved after approximately 10 minutes, monitored by running an application protocol stepping from a holding voltage of −80 mV to a test voltage of 0 mV every 10 seconds. In the time-matched control experiments for rabbit and guinea pig channels, experiments were performed in a similar way as with ARA-S but with EtOH only; i.e. the first control recording was performed in control solution (no vehicle) and the subsequent recordings done with vehicle only added (i.e. EtOH but no ARA-S). The tubing system and recording chamber were cleaned between cells with 70% EtOH and distilled H2O.
(§3) To quantify the voltage dependence of channel opening, tail currents were measured shortly after stepping to the tail voltage and plotted against the preceding activation voltage. […]

[5] = target: T1, human Kv7.1/KCNE1 channel (Homo sapiens, UniProt P51787); experiment: as above; assay type: cell-based
T1 construct: expressed in transfected cells; host or cells: Xenopus laevis oocytes (RNA injection)
Excerpt: as §1, §2, §3

[6] = target: rabbit Kv7.1/KCNE1 channel (Oryctolagus cuniculus, UniProt Q9MYS6); experiment: as above; assay type: cell-based
Excerpt: as §1, §2, §3

[7] = test system: Kv7.1/KCNE1 from all three species; experiment: Two-electrode voltage clamp, summary over channels from all three species; assay type: cell-based; details: predicted from fits, range over human, guinea pig and rabbit channels
Excerpt: Isolation of Xenopus laevis oocytes was approved by the Linköping Animal Care and Use Committee (Permits #1941 and #14515) and conforms to national and international guidelines. All procedures conform to the guidelines from Directive 2010/63/EU of the European Parliament on the protection of animals used for scientific purposes. A total of 30 female adult (minimum 1 year of age) Xenopus laevis animals (from Nasco, WI, USA) underwent surgery to isolate oocytes. The frogs were anaesthetized for 15 minutes in a bath of 1.4 g/L MS-222 Sandoz (Ethyl 3-aminobenzoate methanesulfonate, Sigma Aldrich, Stockholm). The depth of anesthesia was monitored by checking for reflexes when the paws were pinched. […]
Two-electrode voltage clamp recordings were performed at room temperature using a Dagan CA-1B amplifier (Dagan, MN, USA) or an AxoClamp 900A amplifier (Molecular Devices, CA, USA). […] ARA-S was applied until a stable effect on current amplitude was observed, achieved after approximately 10 minutes, monitored by running an application protocol stepping from a holding voltage of −80 mV to a test voltage of 0 mV every 10 seconds. […]
as §3

[8] = target: T1, human Kv7.1/KCNE1 channel; parameters: method as in PMID 36796231; details: cited from earlier work
[9] = test system: cannabinoid receptor 1 (CB1); parameters: method as in PMID 16467152, PMID 20649563; details: cited from earlier work
[10] = test system: CB2; parameters: method as in PMID 16467152, PMID 20649563; details: at concentrations as high as 30 µM; cited from earlier work
[11] = test system: TRPV1 channels; parameters: method as in PMID 16467152, PMID 20649563; details: at concentrations as high as 30 µM; cited from earlier work
[12] = test system: guinea pig heart; parameters: method as in PMID 36796231; details: cited from earlier work
[13] = best fit, 0 mV, read-out: EC50 for current amplitude (Iamp) at 0 mV
[14] = best fit, 20 mV, read-out: EC50 for current amplitude (Iamp) at 20 mV
[15] = best fit, 20 mV, read-out: ΔIamp, 20 mV, max
[16] = best fit, 40 mV, read-out: EC50 for current amplitude (Iamp) at 40 mV

rabbit Kv7.1/KCNE1 channel, sequence (Q9MYS6 whole entry): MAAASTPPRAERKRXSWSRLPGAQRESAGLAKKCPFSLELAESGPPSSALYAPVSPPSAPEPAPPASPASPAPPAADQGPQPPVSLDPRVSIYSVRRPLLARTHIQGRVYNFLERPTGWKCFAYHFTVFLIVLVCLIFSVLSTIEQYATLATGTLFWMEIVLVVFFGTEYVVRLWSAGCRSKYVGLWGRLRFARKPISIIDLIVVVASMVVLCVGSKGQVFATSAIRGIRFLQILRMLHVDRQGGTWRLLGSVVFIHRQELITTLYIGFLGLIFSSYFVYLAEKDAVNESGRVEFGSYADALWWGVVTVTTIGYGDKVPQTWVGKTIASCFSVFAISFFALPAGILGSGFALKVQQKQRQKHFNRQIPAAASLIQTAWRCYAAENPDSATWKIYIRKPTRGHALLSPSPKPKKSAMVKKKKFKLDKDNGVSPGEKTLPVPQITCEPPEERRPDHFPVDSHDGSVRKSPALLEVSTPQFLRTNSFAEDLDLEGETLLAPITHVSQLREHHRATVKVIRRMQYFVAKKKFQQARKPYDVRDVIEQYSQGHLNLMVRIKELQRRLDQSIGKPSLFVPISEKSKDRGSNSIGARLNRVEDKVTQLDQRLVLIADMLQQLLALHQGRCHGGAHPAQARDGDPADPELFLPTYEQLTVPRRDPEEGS
rabbit Kv7.1/KCNE1 channel, sequence (Q28705 whole entry partner): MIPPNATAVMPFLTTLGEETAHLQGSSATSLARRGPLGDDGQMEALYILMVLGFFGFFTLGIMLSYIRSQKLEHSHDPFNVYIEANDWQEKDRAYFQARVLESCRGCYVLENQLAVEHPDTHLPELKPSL

In the case of `CC/C=C\C/C=C\C/C=C\C/C=C\C/C=C\C/C=C\CCC(=O)O` [DHA, docosahexaenoic acid], the effects on channel [1] is given as “largely comparable activating effects” and the effects on channel [2] is given as “largely comparable activating effects”.
In the case of `CCCCC/C=C\C/C=C\CCCCCCCC(=O)NCC(=O)O` [Lin-Gly, linoleoyl glycine], the “effects on channel compared to the human Kv7.1/KCNE1 channel” value [3] is listed as “impaired effects”.
For `CCCCC/C=C\C/C=C\C/C=C\C/C=C\CCCC(=O)NC(CO)C(=O)O` (stereo in doubt) [ARA-S, N-arachidonoyl-L-serine], the EC50 ([4]; best fit of concentration-response, n = 5-8, read-out: EC50 for the V50 effect) was 6.2 µM, the EC50 [4, 13] was 4.7 µM and the EC50 [4, 14] was 3 µM. It also gave an Emax [4, 15] of 733%, an EC50 [4, 16] of 4.2 µM and an Emax ([4]; best fit, 40 mV, read-out: ΔIamp, 40 mV, max) of 631%. The Emax ([4]; best fit, maximal change in GMAX, channel has time-dependent GMAX run-up, read-out: ΔGMAX, max) was 188%, the “ΔV50, max” value ([4]; best fit, maximal shift in V50) was −70.4 mV and the EC50 ([4]; best fit, read-out: EC50 for the maximal conductance (GMAX) effect) was 1.6 µM. For the same molecule, the “Itailmax;ARA-S” value ([4]; representative cell, 10 µM ARA-S (Itailmax;ctrl = 4.4 µA)) was 11.2 µA, the “V50;ARA-S” value ([4]; representative cell, 10 µM ARA-S (V50;ctrl = +44.1 mV)) was −17.5 mV and the “ARA-S effect on current amplitude at 0 mV reversed upon washout” value ([5]; 10 µM of ARA-S, n = 5, mean ± sem) was 50 ± 5%. For the same molecule, the “Itailmax;ARA-S” value ([5]; representative cell, 10 µM ARA-S (Itailmax;ctrl = 6.2 µA)) was 10.1 µA, the “V50;ARA-S” value ([5]; representative cell, 10 µM ARA-S (V50;ctrl = +30.2 mV)) was −23.0 mV and the EC50 ([6]; best fit of concentration-response, n = 6-7, read-out: EC50 for the V50 effect) was 3100 nM. It also gave an EC50 [6, 13] of 2200 nM, an Emax ([6]; best fit, 0 mV, read-out: ΔIamp, 0 mV, max) of 515% and an EC50 [6, 14] of 1200 nM. The Emax [6, 15] was 225%, the “ΔV50, max” value ([6]; best fit, maximal shift in V50) was −60.5 mV and the “Itailmax;ARA-S” value ([6]; representative cell, 10 µM ARA-S (Itailmax;ctrl = 3.7 µA)) was 5.7 µA. The “V50;ARA-S” value ([6]; representative cell, 10 µM ARA-S (V50;ctrl = +23.9 mV)) was −33.5 mV, the “anticipated maximal effect on V50” value [7] was −60 to −80 mV and the EC50 ([7]; read-out: concentration required to reach 50% of the maximal effect on V50) was 3 to 9 µM. For the same molecule, the EC50 ([8]; best fit of concentration-response, human data duplicated, read-out: EC50 for the V50 effect) was 8900 nM, the “ΔIamp, 0 mV, max” value ([8]; best fit, 0 mV) was “+497%” and the EC50 [8, 13] was 2000 nM. The “ΔIamp, 20 mV, max” value ([8]; best fit, 20 mV) was “+197%”, the EC50 [8, 14] was 1400 nM and the “ΔIamp, 40 mV, max” value ([8]; best fit, 40 mV) was “+58%”. For the same molecule, the EC50 [8, 16] was 600 nM, the “ΔGMAX, max” value ([8]; best fit, maximal change in GMAX) was “+83%” and the “ΔV50, max” value ([8]; best fit, maximal shift in V50, human data duplicated) was −79.6 mV. For the same molecule, the EC50 ([8]; best fit, human data duplicated, read-out: EC50 for the maximal conductance (GMAX) effect) was 5700 nM, the “binding to cannabinoid receptor 1 (CB1)” value [9] was “bind only weakly” and the “binding to CB2” value [10] was “no detectable binding”. For the same molecule, the “binding to TRPV1 channels” value [11] was “no detectable binding”, the “effect on prolonged QT interval” value [12] was “reversed” and the “effect on prolonged action potential duration” value [12] was “reversed”.
